{"source": "patent US12594293B2", "about": "“Use of 6-thio-dG to treat therapy-resistant telomerasepositive pediatric brain tumors” (The Board of Regents of The University of Texas System, priority 2018, dated 2026)", "key": {"[1]": {"details": "cited from earlier work"}, "U2OS cells": {"test_system": "U2OS cells", "assay": "Cell growth and viability after drug removal", "format": "cell-based, human", "details": "3 mM 6-thio-dG for 3 days followed by 10-days post-drug removal (FIG. 10C)"}, "MB004 cells": {"test_system": "MB004 cells", "assay": "Sphere formation assay", "format": "cell-based, human", "details": "3 μM, day 7", "procedure": "(§1) Cell growth and sphere formation assay. After dissociating primary neurospheres by TrypLE express (Gibco), single cells were seeded in respective growth media in 6-well plates and were incubated for one week at varying concentrations (0.5 to 10 μM) of 6-thio-dG or DMSO. Fresh culture media were added every three days. Viable cell numbers were determined by trypan blue exclusion method. For sphere formation assay, MB004 single cells were seeded in limited dilution (10 cells/well in 96-well plate) and treated with DMSO or 6-thio-dG. Sphere formation was monitored by microscopy."}, "HFF + hTERT": {"test_system": "HFF + hTERT", "assay": "Cell growth assay (viable cell count, trypan blue exclusion)", "format": "cell-based, human", "details": "Homo sapiens, 168 h; 6-thio-dG treatment for 7 days; HFF + hTERT"}, "HeLa cells": {"test_system": "HeLa cells", "assay": "Apoptosis, cleaved caspase-3 (IF / immunoblot)", "format": "cell-based, human", "details": "3 μM for 4 or 7 days", "procedure": "(§2) Immunofluorescence and telomere FISH assay. Cells were fixed with 4% paraformaldehyde (PFA) for 15 minutes. Cells were then washed, permeabilized with 0.5% Triton-X-100 in PBS, blocked with 5% donkey serum and 0.3% Triton X-100 in TBS and incubated with primary antibodies against γH2A.X (1:500, rabbit), or cleaved caspase-3 (1:400, rabbit) (Cell Signaling); and/or TRF2 (1:200) (Mouse; NOVUS), as applicable, for overnight followed by TBST wash (×3) next day. Corresponding secondary antibodies were added (Alexa-Fluor 488- or 594-conjugated donkey anti-rabbit, or anti-mouse (1:500) (Jackson ImmunoResearch) for 1 hour and washed with TBS (×3) before mounting. For telomere-FISH, fixed and permeabilized cells were dehydrated with a graded ethanol concentration series, air-dried and covered with hybridization solution (70% formamide, 0.5% Blocking Reagent (Roche Diagnostics) diluted in 100 mM maleic acid and 150 mM sodium chloride, and 10 mM Tris (pH 7.5)) with 300 ng/mL PNA(CCCTAA)3-Cy3 (SEQ ID NO: 1) (Biosynthesis, USA), and denatured for 6 minutes at 84° C. followed by hybridization for at least two hours at room temperature. Cells were washed three times with 70% formamide and 10 mM Tris (pH 7.5) and three times with TBS. Finally, they were embedded with mounting media with DAPI (Vector Laboratories H1200).\n(§3) Western blot. Western blot was performed as described previously (22). Antibodies used were against ATMS1981P (R & D Systems); ATM (SIGMA); ATR-T1989P (GeneTex); and ATR, CHK1-S345P, CHK1, CHK2-T68P, CHK2, Cleaved Caspase-3, and β-actin (Cell Signaling). Bands were visualized using ECL with Azurec500 imaging system (Azure Biosystems). Band intensities were quantified using ImageJ software (Ver. 1.49u, NIH, USA)."}, "HFF+hTERT cells [2]": {"test_system": "HFF+hTERT cells", "assay": "Apoptosis, cleaved caspase-3 (IF / immunoblot)", "format": "cell-based, human", "details": "3 μM for 4 or 7 days", "procedure": "as §2, §3"}, "HFF cells [3]": {"test_system": "HFF cells", "assay": "Apoptosis, cleaved caspase-3 (IF / immunoblot)", "format": "cell-based, human", "details": "3 μM for 4 or 7 days", "procedure": "as §2, §3"}, "D-425": {"test_system": "D-425", "assay": "Cell growth assay (viable cell count, trypan blue exclusion)", "format": "cell-based, human", "procedure": "as §1"}, "MB004": {"test_system": "MB004", "assay": "Cell growth assay (viable cell count, trypan blue exclusion)", "format": "cell-based, human", "procedure": "as §1"}, "SaOS2": {"test_system": "SaOS2", "assay": "Cell growth assay (viable cell count, trypan blue exclusion)", "format": "cell-based, human", "procedure": "as §1"}, "D-458": {"test_system": "D-458", "assay": "Cell growth assay (viable cell count, trypan blue exclusion)", "format": "cell-based, human", "procedure": "as §1"}, "HFF": {"test_system": "HFF", "assay": "Cell growth assay (viable cell count, trypan blue exclusion)", "format": "cell-based, human", "procedure": "as §1"}, "HeLa": {"test_system": "HeLa", "assay": "Cell growth assay (viable cell count, trypan blue exclusion)", "format": "cell-based", "details": "Homo sapiens, 168 h, 6-thio-dG treatment for 7 days", "procedure": "as §1"}, "CCHMC-DIPG-1": {"test_system": "CCHMC-DIPG-1", "assay": "Cell growth assay (viable cell count, trypan blue exclusion)", "format": "cell-based", "details": "Homo sapiens, 168 h, 6-thio-dG treatment for 7 days", "procedure": "as §1"}, "R0315-GBM": {"test_system": "R0315-GBM", "assay": "Cell growth assay (viable cell count, trypan blue exclusion)", "format": "cell-based", "details": "Homo sapiens, 168 h, 6-thio-dG treatment for 7 days", "procedure": "as §1"}, "SU-DIPG-VI": {"test_system": "SU-DIPG-VI", "assay": "Cell growth assay (viable cell count, trypan blue exclusion)", "format": "cell-based", "details": "Homo sapiens, 168 h, 6-thio-dG treatment for 7 days", "procedure": "as §1"}, "HFF+hTERT cells [4]": {"test_system": "HFF+hTERT cells", "assay": "Cell cycle analysis (PI flow cytometry)", "format": "cell-based, human", "procedure": "(§4) Cell cycle analysis. Following treatment with 6-thio-dG or DMSO, cells were collected in PBS, fixed with ice-cold 70% ethanol and were kept in −20° C. for at least an hour. Cells were then washed and stained with propidium iodide (PI) solution containing 25 μg/mL PI (Sigma), and 100 μg/mL Ribonuclease-A (Sigma) for 30 minutes in the dark. Flow cytometry was performed on BD FACS Canto II and cells were analyzed using FlowJo v.10 (FlowJo, USA) software."}, "HFF cells [5]": {"test_system": "HFF cells", "assay": "Cell cycle analysis (PI flow cytometry)", "format": "cell-based, human", "details": "3 μM, three days", "procedure": "as §4"}}, "note": "pIC50: −log10 of the molar value."}
{"smiles": "Nc1nc2c(ncn2[C@H]2C[C@H](O)[C@@H](CO)O2)c(=S)[nH]1", "note": "[6-thio-dG, 6-thio-2′-deoxyguanosine]", "values": [{"measurement": "animal deaths or weight loss", "setting": "[1]; mice treated with 6-thio-dG, Mender et al.", "result": "no animal deaths or weight loss"}, {"measurement": "toxic effects on hematologic counts, liver and kidney functions", "setting": "[1]; mouse, in vivo", "result": "did not cause any toxic effects"}, {"measurement": "cell death / viability", "setting": "U2OS cells", "result": "predominantly did not die"}, {"measurement": "sphere formation ability", "setting": "MB004 cells", "result": "total abolition of sphere formation ability"}, {"measurement": "pIC50", "setting": "HFF + hTERT", "result": 6.75}, {"measurement": "cleaved caspase-3 signal (apoptosis)", "setting": "HeLa cells", "result": "increase in cleaved caspase-3 signal"}, {"measurement": "apoptosis (cleaved caspase-3)", "setting": "HFF+hTERT cells [2]", "result": "did not show any evidence of apoptosis"}, {"measurement": "apoptosis (cleaved caspase-3)", "setting": "HFF cells [3]", "result": "did not show any evidence of apoptosis"}, {"measurement": "cell growth", "setting": "D-425; 0.5-10 μM for one week, cells at diagnosis", "result": "effectively inhibited cell growth"}, {"measurement": "pIC50", "setting": "D-425; Homo sapiens, 168 h, 6-thio-dG treatment for 7 days, D-425 (primary)", "result": 5.86}, {"measurement": "relative growth", "setting": "MB004; 3 μM 2 days, then 3 days continuous or discontinuous treatment", "result": "robust growth inhibition"}, {"measurement": "pIC50", "setting": "MB004; Homo sapiens, 168 h, 6-thio-dG treatment for 7 days, MB004", "result": 6.36}, {"measurement": "pIC50", "setting": "SaOS2; Homo sapiens, SAOS-2, 168 h, 6-thio-dG treatment for 7 days, SaOS2 (telomerase-negative, ALT-positive)", "result": 5.12}, {"measurement": "cell growth", "setting": "SaOS2; up to 3 μM, one week", "result": "minor to no effect"}, {"measurement": "cell growth", "setting": "D-458; 0.5-10 μM for one week, cells at recurrence", "result": "effectively inhibited cell growth"}, {"measurement": "pIC50", "setting": "D-458; Homo sapiens, 168 h, 6-thio-dG treatment for 7 days, D-458 (recurrence)", "result": 5.84}, {"measurement": "pIC50", "setting": "HFF; Homo sapiens, 168 h, 6-thio-dG treatment for 7 days, HFF (telomerase-negative)", "result": 5.10}, {"measurement": "cell growth", "setting": "HFF; up to 3 μM, one week", "result": "minor to no effect"}, {"measurement": "pIC50", "setting": "HeLa", "result": 6.84}, {"measurement": "pIC50", "setting": "CCHMC-DIPG-1", "result": 6.18}, {"measurement": "pIC50", "setting": "R0315-GBM", "result": 5.90}, {"measurement": "pIC50", "setting": "SU-DIPG-VI", "result": 6.11}, {"measurement": "cell cycle profile after drug removal", "setting": "HFF+hTERT cells [4]; 3 μM 3 days, then drug removed", "result": "partially reverted to that of the vehicle control"}, {"measurement": "cell cycle progression", "setting": "HFF+hTERT cells [4]; 3 μM, three days", "result": "caused G2/M arrest"}, {"measurement": "G2/M arrest effect", "setting": "HFF cells [5]", "result": "negligible"}]}
